Test results from ChEMBL document CHEMBL1201862, “PubChem BioAssay data set” (2004).
Active and inactive are the calls of the source.

What was measured:
[1] = biological target: T1, Corticotropin-releasing factor receptor 2/Corticotropin-releasing factor-binding protein (Homo sapiens, UniProt P24387+Q13324); assay: activators of CRF receptor 2 with binding protein – uHTS hits, confirmation (AID 602473); assay type: functional; settings: read-out: EC50_Mean
T1 sequence (Q13324 whole entry): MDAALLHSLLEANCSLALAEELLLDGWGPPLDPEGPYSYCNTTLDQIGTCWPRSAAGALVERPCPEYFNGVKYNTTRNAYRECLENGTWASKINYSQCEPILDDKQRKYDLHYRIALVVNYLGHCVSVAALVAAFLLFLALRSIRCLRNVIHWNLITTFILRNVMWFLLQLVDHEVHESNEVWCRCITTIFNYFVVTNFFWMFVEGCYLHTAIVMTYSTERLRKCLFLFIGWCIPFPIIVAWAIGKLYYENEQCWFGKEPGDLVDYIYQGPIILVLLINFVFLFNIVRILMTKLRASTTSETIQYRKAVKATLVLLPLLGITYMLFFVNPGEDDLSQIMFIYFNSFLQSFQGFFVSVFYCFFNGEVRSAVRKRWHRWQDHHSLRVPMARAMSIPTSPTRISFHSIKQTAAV
T1 sequence (P24387 whole entry): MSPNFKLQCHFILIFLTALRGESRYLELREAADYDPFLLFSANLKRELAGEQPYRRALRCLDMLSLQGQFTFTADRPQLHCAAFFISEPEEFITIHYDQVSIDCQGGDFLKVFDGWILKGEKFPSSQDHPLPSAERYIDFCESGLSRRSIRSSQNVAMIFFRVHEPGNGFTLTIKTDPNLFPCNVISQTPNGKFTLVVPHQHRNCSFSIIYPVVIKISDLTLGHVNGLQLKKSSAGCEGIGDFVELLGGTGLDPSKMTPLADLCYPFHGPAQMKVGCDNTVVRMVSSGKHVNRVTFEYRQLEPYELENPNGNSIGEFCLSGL

[2] = biological target: T2, Tyrosine-protein phosphatase non-receptor type 22 (Homo sapiens, UniProt Q9Y2R2); assay: PTPN22 phosphatase inhibition, dose response, selectivity assay for STEP inhibitor project, biochemical (AID 624241); assay type: functional
T2 sequence (Q9Y2R2 whole entry): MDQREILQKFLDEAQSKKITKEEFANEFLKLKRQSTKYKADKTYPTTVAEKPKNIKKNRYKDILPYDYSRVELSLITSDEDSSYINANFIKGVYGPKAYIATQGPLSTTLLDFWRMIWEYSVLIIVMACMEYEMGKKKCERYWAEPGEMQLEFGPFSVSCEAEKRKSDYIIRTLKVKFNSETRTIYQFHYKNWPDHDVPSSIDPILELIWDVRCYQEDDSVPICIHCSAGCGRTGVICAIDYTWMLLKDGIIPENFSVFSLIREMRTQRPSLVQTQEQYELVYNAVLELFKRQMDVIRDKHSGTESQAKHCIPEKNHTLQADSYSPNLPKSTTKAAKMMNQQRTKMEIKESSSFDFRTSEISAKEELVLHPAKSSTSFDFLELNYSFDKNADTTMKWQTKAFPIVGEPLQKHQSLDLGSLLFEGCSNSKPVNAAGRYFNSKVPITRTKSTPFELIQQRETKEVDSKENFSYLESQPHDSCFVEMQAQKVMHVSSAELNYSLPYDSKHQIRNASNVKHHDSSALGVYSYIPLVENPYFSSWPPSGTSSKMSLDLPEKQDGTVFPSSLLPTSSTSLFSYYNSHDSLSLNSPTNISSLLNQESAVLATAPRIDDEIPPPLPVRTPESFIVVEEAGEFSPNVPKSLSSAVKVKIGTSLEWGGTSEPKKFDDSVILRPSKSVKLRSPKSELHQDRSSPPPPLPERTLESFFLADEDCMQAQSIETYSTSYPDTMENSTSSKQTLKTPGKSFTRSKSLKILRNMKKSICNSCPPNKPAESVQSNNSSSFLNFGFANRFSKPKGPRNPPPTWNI

[3] = biological target: Tyrosine-protein phosphatase non-receptor type 11 (Homo sapiens, UniProt Q06124); assay: SHP2 phosphatase inhibition, dose response, selectivity assay for STEP inhibitor project, biochemical (AID 602367); assay type: functional; settings: read-out: IC50_Mean
Tyrosine-protein phosphatase non-receptor type 11, sequence (Q06124 whole entry): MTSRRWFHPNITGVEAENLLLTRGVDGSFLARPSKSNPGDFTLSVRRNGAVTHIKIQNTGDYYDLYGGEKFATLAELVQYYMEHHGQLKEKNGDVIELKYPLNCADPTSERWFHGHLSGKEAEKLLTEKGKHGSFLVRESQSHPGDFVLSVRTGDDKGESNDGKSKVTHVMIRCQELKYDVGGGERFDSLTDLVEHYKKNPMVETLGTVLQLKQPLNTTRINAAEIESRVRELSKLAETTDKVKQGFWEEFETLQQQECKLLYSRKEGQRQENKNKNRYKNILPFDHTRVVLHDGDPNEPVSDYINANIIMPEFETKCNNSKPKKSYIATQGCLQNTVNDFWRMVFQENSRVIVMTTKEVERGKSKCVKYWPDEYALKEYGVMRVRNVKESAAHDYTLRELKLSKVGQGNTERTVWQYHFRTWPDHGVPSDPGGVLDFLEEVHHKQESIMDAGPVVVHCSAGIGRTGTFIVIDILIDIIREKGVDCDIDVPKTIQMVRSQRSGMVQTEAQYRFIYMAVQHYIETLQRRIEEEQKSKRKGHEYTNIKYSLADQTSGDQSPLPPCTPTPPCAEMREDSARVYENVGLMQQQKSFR

[4] = biological target: Dual specificity protein phosphatase 3 (Homo sapiens, UniProt P51452); assay: VHR phosphatase inhibition, dose response, selectivity assay for STEP inhibitor project, biochemical (AID 602374); assay type: functional; settings: read-out: IC50_Mean
Dual specificity protein phosphatase 3, sequence (P51452 whole entry): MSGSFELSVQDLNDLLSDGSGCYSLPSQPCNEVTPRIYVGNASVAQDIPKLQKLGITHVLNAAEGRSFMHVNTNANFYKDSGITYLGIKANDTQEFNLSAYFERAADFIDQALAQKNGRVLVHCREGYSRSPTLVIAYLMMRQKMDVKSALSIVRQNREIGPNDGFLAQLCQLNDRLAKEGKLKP

[5] = biological target: Tyrosine-protein phosphatase non-receptor type 5 (Homo sapiens, UniProt P54829); assay: STEP phosphatase inhibitors, confirmation, biochemical, fluorescence intensity, uHTS hits (AID 602372); assay type: functional; settings: read-out: IC50_Mean
Tyrosine-protein phosphatase non-receptor type 5, sequence (P54829 whole entry): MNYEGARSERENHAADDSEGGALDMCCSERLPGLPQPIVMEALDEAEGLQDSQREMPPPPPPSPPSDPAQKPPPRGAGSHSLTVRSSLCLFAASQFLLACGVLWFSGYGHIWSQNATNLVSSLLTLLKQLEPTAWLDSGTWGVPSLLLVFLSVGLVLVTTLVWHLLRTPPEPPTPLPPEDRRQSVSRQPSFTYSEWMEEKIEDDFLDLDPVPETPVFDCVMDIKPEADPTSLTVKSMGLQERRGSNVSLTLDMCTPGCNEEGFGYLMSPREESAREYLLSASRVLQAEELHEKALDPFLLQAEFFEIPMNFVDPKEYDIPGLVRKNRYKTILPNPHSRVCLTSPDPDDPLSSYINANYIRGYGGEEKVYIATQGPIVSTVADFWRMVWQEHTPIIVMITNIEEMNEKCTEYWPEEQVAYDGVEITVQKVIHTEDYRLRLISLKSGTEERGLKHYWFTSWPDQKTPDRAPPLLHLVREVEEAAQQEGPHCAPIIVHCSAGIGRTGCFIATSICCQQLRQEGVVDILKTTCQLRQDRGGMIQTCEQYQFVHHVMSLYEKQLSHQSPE

[6] = biological target: T3, Small ubiquitin-related modifier 1 (Homo sapiens, UniProt P63165); assay: inhibitors of SUMO1 partner interactions, dose response, biochemical, FRET (AID 624383); assay type: functional; settings: read-out: IC50_Mean
T3 sequence (P63165 whole entry): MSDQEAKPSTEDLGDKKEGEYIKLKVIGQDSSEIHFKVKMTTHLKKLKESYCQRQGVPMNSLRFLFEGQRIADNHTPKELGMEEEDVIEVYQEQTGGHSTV

[7] = biological target: T3, Small ubiquitin-related modifier 1; assay: inhibitors of SUMO1 peptide binding, dose response, biochemical, fluorescence polarization, uHTS hits (AID 624382); assay type: functional; settings: read-out: IC50_Mean
[8] = biological target: T1, Corticotropin-releasing factor receptor 2/Corticotropin-releasing factor-binding protein; assay: Dose Response confirmation of uHTS hits for small molecule antagonists of the CRF-binding protein and CRF-R2 receptor complex.; assay type: functional; settings: read-out: IC50_Mean
[9] = biological target: T4, Carboxy-terminal domain RNA polymerase II polypeptide A small phosphatase 1 (Homo sapiens, UniProt Q9GZU7); assay: inhibitors of CTDSP1, concentration-response testing, biochemical assay, absorbance-based, actives from ultra-high-throughput screening (AID 540297); assay type: functional
T4 sequence (Q9GZU7 whole entry): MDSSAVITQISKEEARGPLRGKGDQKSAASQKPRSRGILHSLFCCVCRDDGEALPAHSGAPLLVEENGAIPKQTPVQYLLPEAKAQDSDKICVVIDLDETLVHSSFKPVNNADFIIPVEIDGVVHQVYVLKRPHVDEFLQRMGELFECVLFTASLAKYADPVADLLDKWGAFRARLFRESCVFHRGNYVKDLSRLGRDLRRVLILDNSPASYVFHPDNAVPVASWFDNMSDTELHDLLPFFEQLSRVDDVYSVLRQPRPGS

[10] = biological target: Arf-GAP with SH3 domain, ANK repeat and PH domain-containing protein 1 (Homo sapiens, UniProt Q9ULH1); assay type: functional;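 further: biochemical fluorescence polarization dose–response screen measuring inhibition of ASAP1; ASAP1 GAP domain stimulating GTP hydrolysis by truncated human ARF1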
[11] = biological target: ADP-ribosylation factor GTPase-activating protein 1 (Rattus norvegicus, UniProt Q62848); assay: Fluorescence polarization-based biochemical high throughput dose response screening assay to identify inhibitors of ADP-ribosylation factor GTPase activating protein 1 (ARFGAP1).; assay type: functional
ADP-ribosylation factor GTPase-activating protein 1, sequence (Q62848 whole entry): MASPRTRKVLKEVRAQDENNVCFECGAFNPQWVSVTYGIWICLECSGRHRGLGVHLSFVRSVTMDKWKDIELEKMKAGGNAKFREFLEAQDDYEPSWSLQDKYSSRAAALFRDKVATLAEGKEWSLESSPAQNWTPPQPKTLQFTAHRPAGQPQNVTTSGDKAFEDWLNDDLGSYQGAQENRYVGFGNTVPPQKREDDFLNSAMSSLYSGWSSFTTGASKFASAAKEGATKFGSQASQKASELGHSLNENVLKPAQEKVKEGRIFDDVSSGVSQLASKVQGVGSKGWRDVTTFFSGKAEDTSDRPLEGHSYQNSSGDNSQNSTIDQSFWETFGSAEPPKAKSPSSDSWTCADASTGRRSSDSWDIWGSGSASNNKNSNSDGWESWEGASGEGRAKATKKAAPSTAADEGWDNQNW

[12] = biological target: T5, Methionyl-tRNA synthetase, putative (Trypanosoma brucei brucei, UniProt Q38C91); assay type: functional, Trypanosoma brucei brucei strain 927/4 GUTat10.1
T5 sequence (Q38C91 whole entry): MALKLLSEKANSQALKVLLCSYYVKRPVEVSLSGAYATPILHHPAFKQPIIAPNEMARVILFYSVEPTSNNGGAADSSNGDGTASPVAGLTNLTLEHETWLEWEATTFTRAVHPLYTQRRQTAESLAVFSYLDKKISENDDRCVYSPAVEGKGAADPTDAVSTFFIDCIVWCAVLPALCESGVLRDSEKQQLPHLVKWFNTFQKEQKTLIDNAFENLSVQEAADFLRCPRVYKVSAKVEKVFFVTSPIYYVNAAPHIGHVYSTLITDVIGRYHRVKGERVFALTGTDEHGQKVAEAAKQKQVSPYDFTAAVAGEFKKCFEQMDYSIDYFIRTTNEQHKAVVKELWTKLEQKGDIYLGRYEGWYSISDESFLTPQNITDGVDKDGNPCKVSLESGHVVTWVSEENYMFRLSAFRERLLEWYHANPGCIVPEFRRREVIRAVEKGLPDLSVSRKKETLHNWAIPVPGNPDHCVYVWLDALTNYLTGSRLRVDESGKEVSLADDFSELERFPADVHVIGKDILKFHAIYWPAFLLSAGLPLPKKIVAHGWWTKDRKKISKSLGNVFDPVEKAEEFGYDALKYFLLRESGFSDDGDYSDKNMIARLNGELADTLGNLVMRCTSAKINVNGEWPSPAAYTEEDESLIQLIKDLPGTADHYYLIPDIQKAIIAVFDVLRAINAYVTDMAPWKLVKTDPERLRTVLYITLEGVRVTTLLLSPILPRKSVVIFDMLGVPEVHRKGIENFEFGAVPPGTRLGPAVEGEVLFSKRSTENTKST

[13] = biological target: T5, Methionyl-tRNA synthetase, putative; assay type: functional, Trypanosoma brucei brucei strain 927/4 GUTat10.1; remark: listed apart in the source
[14] = Counterscreen for inhibitors of Trypanosoma brucei methionyl tRNA synthetase (MetRS): Luminescence-based cell-based high throughput dose response assay to identify compounds that are cytotoxic to Jurkat human T lymphocyte cells.; assay type: functional
HEK293 = assay: cells; assay type: functional, cell-based; settings: Homo sapiens
[15] = biological target: Nuclear receptor subfamily 0 group B member 1 (Homo sapiens, UniProt P51843); assay: Luminescence-based cell-based high throughput dose response assay for inhibitors of the orphan nuclear receptor subfamily 0, group B, member 1 (DAX1; NR0B1). [Related pubchem assays (depositor defined):AID504766, AID504790]; assay type: functional
Nuclear receptor subfamily 0 group B member 1, sequence (P51843 whole entry): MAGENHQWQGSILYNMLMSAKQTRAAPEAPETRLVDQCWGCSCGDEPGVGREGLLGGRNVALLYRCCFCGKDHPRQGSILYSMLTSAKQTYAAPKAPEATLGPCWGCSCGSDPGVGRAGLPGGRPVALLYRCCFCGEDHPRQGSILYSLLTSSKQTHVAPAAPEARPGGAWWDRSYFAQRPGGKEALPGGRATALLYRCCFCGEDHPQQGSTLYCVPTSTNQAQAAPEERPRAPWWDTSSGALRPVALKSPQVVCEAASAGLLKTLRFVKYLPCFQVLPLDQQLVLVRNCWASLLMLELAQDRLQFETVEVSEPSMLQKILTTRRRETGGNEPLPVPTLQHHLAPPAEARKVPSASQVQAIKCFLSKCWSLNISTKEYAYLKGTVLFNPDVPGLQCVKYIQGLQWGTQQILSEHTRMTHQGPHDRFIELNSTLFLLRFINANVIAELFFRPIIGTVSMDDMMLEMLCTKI

[16] = HepG2 cell cytotoxicity, dose response, cytotoxicity control, ATP luminescence, cherry-pick, activator set 2 (AID 1053143); assay type: functional, cell-based
[17] = biological target: T6, DNA repair and recombination protein RAD54-like (Homo sapiens, UniProt Q92698); assay: inhibitors of human RAD54 branch migration, confirmation, biochemical, fluorescence, cherry-picked samples, dose series (AID 651657); assay type: functional
T6 sequence (Q92698 whole entry): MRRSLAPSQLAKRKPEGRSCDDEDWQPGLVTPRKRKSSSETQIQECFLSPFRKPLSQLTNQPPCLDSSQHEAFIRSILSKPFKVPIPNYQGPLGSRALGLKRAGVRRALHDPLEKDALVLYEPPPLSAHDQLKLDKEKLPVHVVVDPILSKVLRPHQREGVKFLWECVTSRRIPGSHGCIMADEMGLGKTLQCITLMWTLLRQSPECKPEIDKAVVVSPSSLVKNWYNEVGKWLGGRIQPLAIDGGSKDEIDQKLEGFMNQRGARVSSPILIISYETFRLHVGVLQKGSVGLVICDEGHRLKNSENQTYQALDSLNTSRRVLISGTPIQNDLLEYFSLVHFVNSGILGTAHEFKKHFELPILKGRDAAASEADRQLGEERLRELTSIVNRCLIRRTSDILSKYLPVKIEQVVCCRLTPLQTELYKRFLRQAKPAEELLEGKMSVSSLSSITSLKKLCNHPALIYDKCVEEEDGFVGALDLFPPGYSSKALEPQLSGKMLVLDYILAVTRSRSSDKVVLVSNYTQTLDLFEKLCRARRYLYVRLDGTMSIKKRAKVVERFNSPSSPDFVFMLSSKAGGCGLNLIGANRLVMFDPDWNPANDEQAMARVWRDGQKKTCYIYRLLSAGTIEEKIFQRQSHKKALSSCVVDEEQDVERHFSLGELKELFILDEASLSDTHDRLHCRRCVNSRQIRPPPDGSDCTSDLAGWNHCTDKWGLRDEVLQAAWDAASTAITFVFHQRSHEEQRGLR

[18] = MDA-MB-231 cell growth inhibition, dose response, cytotoxicity control for RAD54 inhibitor project, CellTiter-Glo luminescence, cherry-pick (AID 651692); assay type: functional, cell-based
[19] = biological target: Nuclear receptor subfamily 5 group A member 2 (Homo sapiens, UniProt O00482); assay type: functional, cell-based;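 further: HEK293T cells transfected with LRH-1 and a StAR promoter luciferase reporter; potency for inhibitors that lower LRH-1 driven reporter light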
[20] = StAR promoter reporter inhibition counter-screen, dose response, counter-screen for LRH-1 inverse agonist project, cell-based, luminescence, luciferase reporter (AID 651969); assay type: functional
Steroidogenic factor 1 = Steroidogenic factor 1 (Homo sapiens, UniProt Q13285); assay: Counterscreen for inverse agonists of the liver receptor homolog-1 (LRH-1; NR5A2): Luminescence-based cell-based high throughput dose response assay to identify inverse agonists of the Steroidogenic Factor 1 Nuclear Receptor (SF1; NR5A1).; assay type: functional
[21] = CRF-BP/CRF-R2 complex antagonists, dose response, cell-based, uHTS hits, 384-well (AID 651639); assay type: functional, Homo sapiens; settings: read-out: IC50_Mean
[22] = biological target: T7, ATP-dependent translocase ABCB1 (Homo sapiens, UniProt P08183); assay: ABCB1 efflux inhibitor potency, dose response, Jurkat-DNR cells, JC-1, flow cytometry, set 2 (AID 504569); assay type: functional; settings: read-out: EC50_MICROM_;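 further: potency of pump inhibitors that raise cellular JC-1 green fluorescence up to the nicardipine level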
T7 sequence (P08183 whole entry): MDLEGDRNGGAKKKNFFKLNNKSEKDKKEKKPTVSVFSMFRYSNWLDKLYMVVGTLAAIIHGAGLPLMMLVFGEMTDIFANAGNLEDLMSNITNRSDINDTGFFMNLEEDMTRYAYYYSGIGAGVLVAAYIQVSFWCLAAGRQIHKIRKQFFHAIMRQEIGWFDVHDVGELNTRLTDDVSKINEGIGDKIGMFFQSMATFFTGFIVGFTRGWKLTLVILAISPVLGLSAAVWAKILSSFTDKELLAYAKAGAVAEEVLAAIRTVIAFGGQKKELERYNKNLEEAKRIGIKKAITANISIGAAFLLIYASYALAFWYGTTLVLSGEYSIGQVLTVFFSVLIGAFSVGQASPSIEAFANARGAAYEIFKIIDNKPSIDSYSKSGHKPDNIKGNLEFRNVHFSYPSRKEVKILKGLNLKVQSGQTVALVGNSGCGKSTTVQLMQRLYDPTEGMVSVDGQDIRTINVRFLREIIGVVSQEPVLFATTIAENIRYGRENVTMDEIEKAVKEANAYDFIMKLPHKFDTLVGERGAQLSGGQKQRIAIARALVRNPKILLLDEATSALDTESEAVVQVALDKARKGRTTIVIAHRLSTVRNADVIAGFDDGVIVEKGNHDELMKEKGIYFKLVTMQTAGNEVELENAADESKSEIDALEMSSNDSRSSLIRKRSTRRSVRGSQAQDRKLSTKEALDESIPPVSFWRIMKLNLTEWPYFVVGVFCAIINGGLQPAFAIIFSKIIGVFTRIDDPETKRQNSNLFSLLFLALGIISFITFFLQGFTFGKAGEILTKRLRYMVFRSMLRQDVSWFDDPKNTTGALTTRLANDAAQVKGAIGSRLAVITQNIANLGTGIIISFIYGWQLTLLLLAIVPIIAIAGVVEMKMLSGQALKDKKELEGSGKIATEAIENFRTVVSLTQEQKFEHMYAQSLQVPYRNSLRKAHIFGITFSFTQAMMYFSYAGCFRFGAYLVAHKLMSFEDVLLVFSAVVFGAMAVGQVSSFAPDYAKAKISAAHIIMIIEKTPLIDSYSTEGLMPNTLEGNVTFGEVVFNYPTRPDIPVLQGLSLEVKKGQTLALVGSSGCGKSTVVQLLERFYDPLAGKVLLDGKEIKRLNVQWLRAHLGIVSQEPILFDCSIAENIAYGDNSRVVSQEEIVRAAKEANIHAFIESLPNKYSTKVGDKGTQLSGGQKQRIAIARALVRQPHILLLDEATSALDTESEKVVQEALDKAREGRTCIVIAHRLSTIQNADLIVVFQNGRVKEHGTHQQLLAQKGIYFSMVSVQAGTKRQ

[23] = biological target: T7, ATP-dependent translocase ABCB1; assay: ABCG2 efflux pump inhibitor potency, dose response, Ig-MXP3 cells, JC-1, flow cytometry, set 2 (AID 504566); assay type: functional; settings: read-out: EC50_MICROM_;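 further: flow cytometry median green fluorescence of retained JC-1 dye; potency of efflux pump inhibition measured as rising substrate retention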
[24] = biological target: T8, Probable nicotinate-nucleotide adenylyltransferase (Staphylococcus aureus (strain N315), UniProt P65502); assay type: functional, Staphylococcus aureus subsp. aureus N315;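 on IC50 Mean: confirmatory dose-response retesting of NadD inhibitor hits first found in an ultra-high-throughput screen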
T8 sequence (P65502 whole entry): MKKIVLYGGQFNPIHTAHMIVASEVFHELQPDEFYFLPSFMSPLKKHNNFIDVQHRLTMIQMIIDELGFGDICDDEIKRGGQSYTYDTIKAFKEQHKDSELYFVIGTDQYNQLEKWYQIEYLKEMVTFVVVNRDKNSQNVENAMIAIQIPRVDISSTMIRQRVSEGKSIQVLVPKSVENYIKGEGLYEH

[25] = biological target: T8, Probable nicotinate-nucleotide adenylyltransferase; assay type: functional, Staphylococcus aureus subsp. aureus N315; settings: read-out: IC50_Mean
[26] = biological target: T9, Heat shock factor protein 1 (Mus musculus, UniProt P38532); assay: HSF1 potentiators in luciferase reporter cells, confirmation, cell-based, NIH3T3, luminescence, dose retest (AID 435004); assay type: functional;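 further: stress induced by proteasome inhibitor MG132 added 30 min after compound; luciferase reporter driven by HSF1 response element in NIH3T3 cells; actives raise luminescence as potentiators of the MG132 stress response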
T9 sequence (P38532 whole entry): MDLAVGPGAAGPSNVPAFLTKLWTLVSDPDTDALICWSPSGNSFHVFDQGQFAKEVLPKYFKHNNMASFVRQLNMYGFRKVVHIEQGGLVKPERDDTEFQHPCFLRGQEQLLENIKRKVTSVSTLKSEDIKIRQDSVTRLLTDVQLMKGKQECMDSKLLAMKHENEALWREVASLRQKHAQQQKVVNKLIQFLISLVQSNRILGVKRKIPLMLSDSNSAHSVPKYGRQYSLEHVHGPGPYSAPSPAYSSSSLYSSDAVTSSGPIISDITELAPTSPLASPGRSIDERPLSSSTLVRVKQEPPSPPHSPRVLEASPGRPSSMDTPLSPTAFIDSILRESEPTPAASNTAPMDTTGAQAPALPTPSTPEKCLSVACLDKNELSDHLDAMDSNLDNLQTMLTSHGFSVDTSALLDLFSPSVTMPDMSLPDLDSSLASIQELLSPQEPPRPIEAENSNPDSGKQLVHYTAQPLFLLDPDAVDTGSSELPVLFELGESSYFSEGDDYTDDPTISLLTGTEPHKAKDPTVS

CN(C)c1ccc(C(=O)OCC(=O)Nc2ccc(S(N)(=O)=O)cc2)cc1
EC50 [1]: > 53 µM (inactive) | IC50 [2]: 67.7 µM (inactive) | IC50 [3]: 4.13 µM (active) | IC50 [4]: 6.56 µM (active) | IC50 [5]: 7.3 µM (active) | IC50 [6]: 12.8 µM (active) | IC50 [7]: > 66.6 µM (inactive) | IC50 [8]: > 47.1 µM (inactive) | IC50 [9]: 8.63 µM (active)

CC1=CC2=NC(=O)/C(=C\c3ccc(-c4cccc(Cl)c4)o3)C(=N)N2O1
IC50 [10]: 13.3 µM (inactive) | IC50 [11]: 2.03 µM (active)

Cc1ccc2[nH]c3c(NCCCN4CCCC4=O)ncnc3c2c1
IC50 [12]: 27.9 µM (inactive) | IC50 [13]: 23.3 µM (inactive) | IC50 [14]: 17.9 µM (inactive)

CCN1C(=O)CCN(C2CCCC2)c2nc(Nc3ccc(C(=O)NC4CCN(C)CC4)cc3OC)ncc21
IC50 (HEK293): > 67.5 µM (inactive) | IC50 [15]: > 67.5 µM (inactive) | AC50 [16]: 13 µM (active) | AC50 [17]: 39.3 µM (active) | AC50 [18]: 36.4 µM (active)

Cc1ccc(NC(=O)COC(=O)c2cc(=O)c3ccccc3o2)c(Br)c1
IC50 [19]: 3.98 µM (active) | IC50 [20]: 35.9 µM (inactive) | IC50 (Steroidogenic factor 1): 24.3 µM (inactive)

O=C(Cc1ccccc1)NCC(=O)OC(c1ccccc1)c1ccccc1
IC50 [21]: > 20 µM (inactive) | EC50 [1]: > 53 µM (inactive) | IC50 [8]: 18.9 µM (active)

O=C(c1ccccc1)N1CCN(c2cc(Cl)nc3cc(-c4cccc(Cl)c4)nn23)CC1
EC50 [22]: 3.98 µM (active) | EC50 [23]: 1.8 µM (active)

O=C(CNc1cccc2ccccc12)N/N=C/c1ccc([N+](=O)[O-])cc1
IC50 [24]: 44.3 µM (active) | IC50 [25]: 80 µM (inactive) | EC50 [26]: > 260 µM (inactive)
